Results as given in US20260124197A1, “NOVEL HETEROBICYCLIC COMPOUND FOR INHIBITING YAP-TEAD INTERACTION AND PHARMACEUTICAL COMPOSITION COMPRISING SAME” (priority 2022, published 2026).

Key:
[1] = test system: NCI-H226 cells; assay: Cell growth inhibition test (SRB); assay type: cell-based; settings: Homo sapiens, 144 h; NCI-H226 mesothelioma cell line lacking the NF2 gene, cultured for 6 days, SRB test method
Method: Experimental Example 2: Cell Growth Inhibition Test
The synthetic compound was confirmed to inhibit cell growth in NCI-H226 cells. NCI-H226 is a mesothelioma cancer cell line lacking the NF2 gene, and was cultured in RPMI 1640 medium supplemented added with 10% FBS and 1% Penicillin/Streptomycin. Cultured cells were dispensed into 96-well plates at 0.7×10^3 cells/100 μl and cultured for 24 hours, then 100 μl of the test compound diluted to a 2× concentration were mixed into each well and cultured for 6 days. The SRB test method was used to measure cell growth inhibition, and the 50% inhibition value (GI50) for cell growth by the compound was calculated using GraphPad Prism 9.
If the GI50 value is less than 100 nM, it is indicated as A, and if it is 100 nM or more, it is indicated as B.

[2] = test system: TEAD transcriptional activity; assay: TEAD reporter activity inhibition test (luciferase reporter, MCF7 cell line); assay type: cell-based; settings: Homo sapiens; TEAD (GTIIC) firefly luciferase reporter MCF7 cell line, 24 hours, ONE-Glo luminescence
Method: Experimental Example 1: TEAD Reporter Activity Inhibition Test
The ability of the synthetic compounds to inhibit TEAD target gene transcription was measured. This evaluation method measures the transcriptional activity of TEAD by measuring the luciferase luminescence expressed when TEAD binds to a target gene and activates transcription using the MCF7 cell line (BPS Bioscience, Inc., USA) in which a firefly luciferase reporter gene has been introduced into the specific binding structure of TEAD, GTIIC (5′-ACATTCCA-3′). Cell lines were cultured in MEM medium added with 10% FBS, 1% Penicillin/Streptomycin, 1% non-essential amino acids, 10 μg/ml insulin, and 400 μg/ml Geneticin, and Geneticin was excluded when testing for inhibition of TEAD reporter activity. […] cells/100 μl were dispensed into a white 96-well plate and cultured for 6 hours. 50 μl of the test compound diluted to 3× concentration was mixed into each well. After 24 hours of cell culture, the luciferase signal was measured by luminescence using the ONE-Glo luciferase assay system (Promega, E6120) following the manufacturer's protocol. The 50% inhibition value (IC50) for TEAD transcriptional activity was calculated using GraphPad Prism 9.
If the IC50 value is less than 100 nM, it is indicated as A, if it is at least 100 nM but less than 500 nM, it is indicated as B, and if it is 500 nM or more, it is indicated as C.

With CCn1cnc(-c2cn(-c3ccc(C(F)(F)F)cc3)c3ccc(S(=O)(=O)NC)cc23)c1 [Example 11, 3-(1-ethyl-1H-imidazol-4-yl)-N-methyl-1-(4-(trifluoromethyl)phenyl)-1H-indole-5-sulfonamide] the GI50 [1] was < 0.1 µM and the IC50 [2] was < 0.1 µM.
With CNS(=O)(=O)c1ccc2c(c1)c(-c1ccccn1)cn2-c1ccc(C(F)(F)F)cc1 [Example 8, N-methyl-3-(pyridin-2-yl)-1-(4-(trifluoromethyl)phenyl)-1H-indole-5-sulfonamide] the GI50 [1] was < 0.1 µM and the IC50 [2] was < 0.1 µM.
For CNS(=O)(=O)c1ccc2c(c1)c(-c1cnc(C)o1)cn2-c1ccc(C(F)(F)F)cc1 [Example 32, N-methyl-3-(2-methyloxazol-5-yl)-1-(4-(trifluoromethyl)phenyl)-1H-indole-5-sulfonamide], the GI50 [1] was < 0.1 µM and the IC50 [2] was < 0.1 µM.
In the case of CNS(=O)(=O)c1ccc2c(c1)c(-c1cn(C3CC3)cn1)cn2-c1ccc(C(F)(F)F)cc1F [Example 42, 3-(1-cyclopropyl-1H-imidazol-4-yl)-1-(2-fluoro-4-(trifluoromethyl)phenyl)-N-methyl-1H-indole-5-sulfonamide], the GI50 [1] is reported as < 0.1 µM and the IC50 [2] is reported as < 0.1 µM.
With CNS(=O)(=O)c1ccc2c(c1)c(-c1ncccc1F)cn2-c1ccc(C(F)(F)F)cc1 [Example 20, 3-(3-fluoropyridin-2-yl)-N-methyl-1-(4-(trifluoromethyl)phenyl)-1H-indole-5-sulfonamide] the GI50 [1] was < 0.1 µM and the IC50 [2] was < 0.1 µM.
For CNS(=O)(=O)c1ccc2c(c1)c(-c1ccco1)cn2-c1ccc(C(F)(F)F)cc1 [Example 31, 3-(furan-2-yl)-N-methyl-1-(4-(trifluoromethyl)phenyl)-1H-indole-5-sulfonamide], the GI50 [1] was < 0.1 µM and the IC50 [2] was < 0.1 µM.
CNS(=O)(=O)c1ccc2c(c1)c(-c1ccoc1)cn2-c1ccc(C(F)(F)F)cc1 [Example 23, 3-(furan-3-yl)-N-methyl-1-(4-(trifluoromethyl)phenyl)-1H-indole-5-sulfonamide] was tested, and the GI50 [1] was < 0.1 µM and the IC50 [2] was < 0.1 µM.
CNS(=O)(=O)c1ccc2c(c1)c(-c1cn(C3CCC3)cn1)cn2-c1ccc(C(F)(F)F)cc1 [Example 16] was tested, and the GI50 [1] was < 0.1 µM and the IC50 [2] was < 0.1 µM.
CNS(=O)(=O)c1ccc2c(c1)c(-c1ccccc1F)cn2-c1ccc(C(F)(F)F)cc1 [Example 13, 3-(2-fluorophenyl)-N-methyl-1-(4-(trifluoromethyl)phenyl)-1H-indole-5-sulfonamide] was tested, and the GI50 [1] was ≥ 0.1 µM and the IC50 [2] was < 0.1 µM.
CNS(=O)(=O)c1ccc2c(c1)c(-c1cn(CCOC)cn1)cn2-c1ccc(C(F)(F)F)cc1 [Example 38, 3-(1-(2-methoxyethyl)-1H-imidazol-4-yl)-N-methyl-1-(4-(trifluoromethyl)phenyl)-1H-indole-5-sulfonamide] was tested, and the GI50 [1] was < 0.1 µM and the IC50 [2] was < 0.1 µM.
CNS(=O)(=O)c1ccc2c(c1)c(-c1ccc(C)o1)cn2-c1ccc(C(F)(F)F)cc1 [Example 10, N-methyl-3-(5-methylfuran-2-yl)-1-(4-(trifluoromethyl)phenyl)-1H-indole-5-sulfonamide] was tested, and the GI50 [1] was < 0.1 µM and the IC50 [2] was < 0.1 µM.
CNS(=O)(=O)c1ccc2c(c1)c(-c1cn(C)cn1)cn2-c1ccc(C(F)(F)F)cc1 [Example 2, N-methyl-3-(1-methyl-1H-imidazol-4-yl)-1-(4-(trifluoromethyl)phenyl)-1H-indole-5-sulfonamide] was tested, and the GI50 [1] was < 0.1 µM and the IC50 [2] was < 0.1 µM.
For CNS(=O)(=O)c1ccc2c(c1)c(-c1cn(C3CC3)cn1)nn2-c1ccc(C(F)(F)F)cc1 [Example 44, 3-(1-cyclopropyl-1H-imidazol-4-yl)-N-methyl-1-(4-(trifluoromethyl)phenyl)-1H-indazol-5-sulfonamide], the GI50 [1] was < 0.1 µM and the IC50 [2] was < 0.1 µM.
With CNS(=O)(=O)c1cnc2c(c1)c(-c1cn(C3CC3)cn1)cn2-c1ccc(C(F)(F)F)cc1 [Example 43, 3-(1-cyclopropyl-1H-imidazol-4-yl)-N-methyl-1-(4-(trifluoromethyl)phenyl)-1H-pyrrolo[2,3-b]pyridine-5-sulfonamide] the GI50 [1] was < 0.1 µM and the IC50 [2] was < 0.1 µM.
For CNS(=O)(=O)c1ccc2c(c1)c(-c1cn(C3CC3)cn1)cn2-c1ccc(C(F)(F)F)cc1 [Example 28, 3-(1-cyclopropyl-1H-imidazol-4-yl)-N-methyl-1-(4-(trifluoromethyl)phenyl)-1H-indole-5-sulfonamide], the GI50 [1] was < 0.1 µM and the IC50 [2] was < 0.1 µM.
